According to patent publication US20130040908A1, “SUBSTITUTION DERIVATIVES OF N6-BENZYLADENOSINE-5' -MONOPHOSPHATE, METHODS OF PREPARATION THEREOF, USE THEREOF AS MEDICAMENTS, AND THERAPEUTIC PREPARATIONS CONTAINING THESE COMPOUNDS” (BIOAPEX, S.R.O., priority 2010, published 2013):

Key:
[1] = system: HOS (human osteogenic sarcoma); assay: Calcein AM cytotoxicity assay, HOS; assay type: cell-based; details: 72 hours
Text: (§1) Because toxic compounds negatively influence metabolic processes in cells, many standard cytotoxicity assays are based on measurement of metabolisation rate of various artificial substrates. Resulting product is then quantified e.g. by means of spectrometry. The assays can be easily modified for use in 96-well plates. For evaluation of cytotoxic effect of the novel substituted 9-substituted cytokinin derivatives of this invention, a microtiter assay based on quantification of metabolisation of Calcein AM was used. The assay is widely used in drug screening programs and in chemosensitivity testing. In the living cells, Calcein AM is enzymatically hydrolysed and accumulation of resulting calcein is manifested by green fluorescence.
(§2) Normal human fibroblasts BJ were used as a control for routine screening of the compounds. The cells were kept in Nunc/Corning 80 cm^2 plastic bottles and grown in cell culture medium (DMEM containing 5 g/l glucose, 2 mM glutamine, 100 U/ml penicillin, 100 μg/ml streptomycine, 10% fetal bovine serum and sodium hydrogencarbonate), the compounds were prepared according to the procedure of the present invention.
(§3) The cell suspensions were prepared and diluted according to the particular cell type and the expected target cell density (2.500-30.000 cells per well based on cell growth characteristics) and pippetted (80 μl) into 96-well plates. […] Tested compound was added in total volume of 20 μl of water at time zero. Usually, test compound was evaluated at six 3-fold dilutions. […] All drug concentrations were tested in triplicates. […] At the end of incubation period Calcein AM in PBS was added into final concentration of 1 μg/ml. After another 1 hour of incubation fluorescence (FD) was measured with the Labsystem FIA Reader Fluoroscan Ascent (UK). Growth inhibition (GI) was estimated using the following equitation: GI=(mean FDdrug exposed wells−mean FDblank)/(mean FDcontrol wells−mean FDblank)×100%.

[2] = system: K-562 (human erythroleukemia); assay: Calcein AM cytotoxicity assay, K-562; assay type: cell-based
Text: as §1, §2, §3

[3] = system: MCF-7 (breast carcinoma); assay: Calcein AM cytotoxicity assay, MCF7; assay type: cell-based; details: MCF7, 72 hours
Text: as §1, §2, §3

[4] = system: CEM (T-lymphoblastoid leukemia); assay: Calcein AM cytotoxicity assay, CEM; assay type: cell-based; details: 72 hours
Text: as §1, §2, §3

[5] = system: HL-60 (promyelocytic leukemia); assay: Calcein AM cytotoxicity assay, HL60; assay type: cell-based, human
Text: as §1, §2, §3

[6] = system: Normal human fibroblasts BJ; assay: Calcein AM cytotoxicity assay, BJ fibroblasts; assay type: cell-based; details: 72 hours
Text: as §1, §2, §3

[7] = system: Human lymphocytes; assay: Immunosuppressive activity, 3H-thymidine incorporation in concanavalin A activated lymphocytes; assay type: cell-based; details: 72 hours, [3H]-TdR
Text: One of the most important parameters of specific cellular immunity is the proliferative response of lymphocytes to antigens or polyclonal mitogens. The majority of normal mammalian peripheral lymphocytes comprise resting cells. Antigens or nonspecific polyclonal mitogens have the capacity to activate lymphoid cells and this is accompanied by dramatic changes of intracellular metabolism (mitochondrial activity, protein synthesis, nucleic acids synthesis, formation of blastic cells and cellular proliferation). […] Variety of in vitro assays was developed to measure proliferative response of lymphocytes. The most commonly used is ^3H-thymidine incorporation method.
During cell proliferation, DNA has to be replicated before the cell is divided into two daughter cells. This close association between cell doublings and DNA synthesis is very attractive for assessing cell proliferation. If labelled DNA precursors are added to the cell culture, cells that are about to divide incorporate the labelled nucleotide into their DNA. Traditionally, those assays usually involve the use of radiolabelled nucleosides, particularly tritiated thymidine ([^3H]-TdR). The amount of [^3H]-TdR incorporated into the cellular DNA is quantified by liquid scintillation counting. Human heparinized peripheral blood was obtained from healthy volunteers by cubital vein punction. The blood was diluted in PBS (1:3) and mononuclear cells were separated by centrifugation in Ficoll-Hypaque density gradient (Pharmacia, 1.077 g/ml) at 2200 rpm for 30 minutes. Following centrifugation, lymphocytes were washed in PBS and resuspended in cell culture medium (RMPI 1640, 2 mM glutamine, 100 U/ml penicillin, 100 μg/ml streptomycin, 10% fetal calf serum and sodium bicarbonate).
The cells were diluted at target density of 1.100.000 cells/ml and were added by pipette (180 μl) into 96-well microtiter plates. Four-fold dilutions of the intended test concentration were added at time zero in 20 μl aliquots to the microtiter plate wells. Usually, test compound was evaluated at six 4-fold dilutions. In routine testing, the highest well concentration was 266.7 μM. All drug concentrations were examined in duplicates. All wells with exception of unstimulated controls were activated with 50 of concanavalin A (25 μg/ml). Incubations of cells with test compounds lasted for 72 hours at 37° C., in 5% CO2 atmosphere and 100% humidity. At the end of incubation period, the cells were assayed by using the [^3H]-TdR:
Cell cultures were incubated with 0.5 μCi (20 μl of stock solution 500 μCi/ml per well for 6 hours at 37° C. and 5% CO2. The automated cell harvester was used to lyse cells in water and adsorb the DNA onto glass-fiber filters in the format of microtiter plate. The DNA incorporated [^3H]-TdR was retained on the filter while unincorporated material passes through. The filters were dried at room temperature overnight, sealed into a sample bag with 10-12 ml of scintillant. The amount of [^3H]-TdR present in each filter (in cpm) was determined by scintillation counting in a Betaplate liquid scintillation counter. The effective dose of immunosuppressant (ED) was calculated using the following equation: ED=(CCPMdrug exposed well/mean CCPMcontrol wells)×100%. The ED50 value, the drug concentration inhibiting proliferation of 50% of lymphocytes, was calculated from the obtained dose response curves.

[8] = system: P388D1 leukemia; assay: In vivo anticancer activity, survival model of P388D1 leukemia; details: oral 250 mg/kg twice daily
Protocol: Screening of biological activity of compound 21 was performed on survival model of P388D1 leukemia transplanted intraperitoneally with 2.10^5 cells. DBA-2 mice were used as a host. One day following the leukemia transplantation, treatment with 21 was initiated. The drug was given orally by gastric gavages in total volume of 200 μl/dose twice daily at dose 250 mg/kg in two chemotherapy cycles (Days 1-3 and 7-9). The compound 21 was solubilized in 5% […], 30% polyethylene glycol 400, 65% tartar buffer (pH 3.0). Survival analysis of treated animals (10 mice/group) was preformed in comparison with vehicle treated mice using Kaplan-Meier method and the significance was evaluated by the log-rank test. Body weight of experimental animals was evaluated in parallel in order to reflect toxicity and efficacy of therapy. Comparative analysis of body weight was performed using non-parametric t-test.

[9] = system: caspase-3; assay: Caspase-3 activity in CEM cells (Apo-ONE kit); assay type: cell-based; details: 10 μM, 12 and 24 hours
Protocol: In the course of apoptosis, caspase cascade is activated. Caspase-3 is an effector caspase that plays a role in the induction of some changes typical for apoptosis (chromatin condensation, DNA fragmentation). Leukemia cell line CEM was cultured in cell culture medium (DMEM containing 5 g/l glucose, 2 mM glutamine, 100 U/ml peniciline, 100 μg/ml streptomycine, 10% fetal calf serum and sodium bicarbonate). 24 hours before treatment, cell suspensions were centrifuged, diluted to concentration of 500000 cells per ml with fresh medium and pipetted in 50 μl, aliquotes into 96-well plate. After 12 and 24 hours of incubation with the test compound, the activity of caspase-3 was measured using commercial kit (Apo-ONE, Promega) that is based on quantification of hydrolysis of fluorogenic substrate Z-DEVD-R110 (excitation 480 nm/emission 520 nm). Reaction specificity was confirmed in a control experiment, when both test compound and caspase-3 inhibitor Ac-DEVD-CHO were added. All experiments were done in triplicate.

[10] = system: Leukemia cell line CEM; assay: Flow cytometry of DNA fragmentation (sub-G1) in CEM cells; assay type: cell-based; details: IC50, triple IC50 and fivefold IC50
Protocol: One of the hallmarks of apoptosis is fragmentation of DNA. It can be measured by flowcytometry of the cells stained with propidium iodide. Because the fragmentation results in a loss of a fraction of the nuclear DNA, apoptotic cells have a lower DNA content than cells in G1 phase of cell cycle and can be detected as a subG1 peak in the histogram.
Leukemia cell line CEM was cultured in cell culture medium (DMEM containing 5 g/l glucose, 2 mM glutamine, 100 U/ml peniciline, 100 μg/ml streptomycine, 10% fetal calf serum and sodium bicarbonate). 24 hours before treatment, cell suspensions were centrifuged, diluted with fresh medium to concentration of 100000 cells per ml with fresh medium and pipetted in 10 ml aliquotes Petri dishes. After an incubation for a given time period, the cells were collected by centrifugation (4° C., 600 g), washed with PBS (4° C.) and fixed with 70% ethanol at −20° C. overnight. Low molecular weight DNA fragmentse were extracted with citrate buffer (11.36 g trisodium citrate dihydrate/1). The nuclei were stained with the solution of propidium iodide in PBS (10 μg/ml) containing RNase A (60 IU per sample). After 1 hour incubation the samples were analyzed by flowcytometry (excitation 488 nm, emission above 620 nm).

[11] = system: G-361 (human malignant melanoma); assay: Calcein AM cytotoxicity assay, G-361; assay type: cell-based; details: G-361, 72 hours
Text: as §1, §2, §3

COc1ccccc1CNc1ncnc2c1ncn2[C@@H]1O[C@H](COP(=O)(O)O)[C@@H](O)[C@H]1O [Compound 15, 6-(2-methoxybenzylamino)purine riboside-5′-monophosphate]
GI50 [1]: 20.1 µM
GI50 ([2]; K-562, 72 hours): 8.4 µM
GI50 [3]: 113 µM
GI50 [4]: 2.4 µM
GI50 ([5]; HL60, 72 hours): 2.1 µM

O=P(O)(O)OC[C@H]1O[C@@H](n2cnc3c(NCc4ccc(Cl)c(Cl)c4)ncnc32)[C@H](O)[C@@H]1O [Compound 25, 6-(3,4-dichlorobenzylamino)purine riboside-5′-monophosphate]
GI50 [1]: 112 µM
GI50 ([2]; K-562, 72 hours): 6.1 µM
GI50 [3]: 82.8 µM
GI50 [6]: 132 µM
GI50 [4]: 3.1 µM
GI50 ([5]; HL60, 72 hours): 1 µM

O=P(O)(O)OC[C@H]1O[C@@H](n2cnc3c(NCc4ccccc4O)ncnc32)[C@H](O)[C@@H]1O [Compound 21, 6-(2-hydroxybenzylamino)purine riboside-5′-monophosphate]
Human lymphocytes ED50 [7]: 6.7 µM
body weight of treated animals [8]: only slight reduction
tolerability in animals [8]: good tolerability
mean survival time ([8]; Days 1-3 and 7-9, vehicle group 13.9 days): 15.4 days
survival analysis (Kaplan-Meier, log-rank) ([8]; P=0.0409 versus vehicle): significantly better survival
activity of caspase-3 [9]: activates caspase-3
DNA fragmentation (apoptotic sub-G1 fraction) [10]: induction of DNA fragmentation

O=P(O)(O)OC[C@H]1O[C@@H](n2cnc3c(NCc4cccc(F)c4)ncnc32)[C@H](O)[C@@H]1O [Compound 2, 6-(3-fluorobenzylamino)purine riboside-5′-monophosphate]
GI50 ([2]; K-562, 72 hours): 7.2 µM
GI50 [3]: 14.7 µM
GI50 [11]: 14.6 µM
GI50 [4]: 3.2 µM
GI50 ([5]; HL60, 72 hours): 0.83 µM
Human lymphocytes ED50 [7]: 11.5 µM

zeatin riboside-5′-monophosphate [reference compound]
GI50 [1]: > 167 µM
GI50 ([2]; K-562, 72 hours): > 167 µM
GI50 [3]: > 167 µM
GI50 [6]: > 167 µM
GI50 [11]: > 167 µM
GI50 [4]: > 167 µM
GI50 ([5]; HL60, 72 hours): > 167 µM

Nc1ncnc2c1ncn2[C@@H]1O[C@H](COP(=O)(O)O)[C@@H](O)[C@H]1O [adenosine-5′-monophosphate, reference compound]
GI50 ([1]; Homo sapiens): > 167 µM
GI50 ([2]; Homo sapiens, K562, K-562, 72 hours): > 167 µM
GI50 ([3]; Homo sapiens): > 167 µM
GI50 ([6]; Homo sapiens, Fibroblast): > 167 µM
GI50 ([11]; Homo sapiens): > 167 µM
GI50 [4]: > 167 µM
GI50 ([5]; Homo sapiens, HL-60, HL60, 72 hours): > 167 µM

Cc1cccc(CNc2ncnc3c2ncn3[C@@H]2O[C@H](COP(=O)(O)O)[C@@H](O)[C@H]2O)c1 [Compound 13, 6-(3-methylbenzylamino)purine riboside-5′-monophosphate]
GI50 ([2]; K-562, 72 hours): 160 µM
GI50 [3]: 71.7 µM
GI50 [4]: 11.6 µM
GI50 ([5]; HL60, 72 hours): 6.6 µM
Human lymphocytes ED50 [7]: 7.5 µM

O=P(O)(O)OC[C@H]1O[C@@H](n2cnc3c(NCc4cccc(O)c4)ncnc32)[C@H](O)[C@@H]1O [Compound 22, 6-(3-hydroxybenzylamino)purine riboside-5′-monophosphate]
GI50 ([2]; K-562, 72 hours): 92.4 µM
GI50 [3]: 108 µM
GI50 [4]: 49.8 µM
GI50 ([5]; HL60, 72 hours): 19 µM
Human lymphocytes ED50 [7]: 12.8 µM

O=P(O)(O)OC[C@H]1O[C@@H](n2cnc3c(NCc4ccc(F)cc4)ncnc32)[C@H](O)[C@@H]1O [Compound 3, 6-(4-fluorobenzylamino)purine riboside-5′-monophosphate]
GI50 [1]: 12.1 µM
GI50 ([2]; K-562, 72 hours): 6.1 µM
GI50 [3]: 12.3 µM
GI50 [4]: 1.2 µM
GI50 ([5]; HL60, 72 hours): 0.69 µM
Human lymphocytes ED50 [7]: 13.4 µM
